Experimental findings from ChEMBL document CHEMBL4052797, “N-alkyl-[1,1'-biphenyl]-2-sulfonamide derivatives as novel broad spectrum anti-epileptic drugs with efficacy equivalent to that of sodium valproate” (2017) are described below.

Calls of active or inactive are those of the source. Bounds are passed on as bounds.

The test system of experiment [1] is Mus musculus. As to the kind of experiment: Anticonvulsant activity in po dosed subcutaneous pentylenetetrazole-induced seizure mouse model assessed as reduction in convulsions. Format: functional.
The test system of experiment [2] is Rattus norvegicus. Put plainly: Anticonvulsant activity in amygdala kindling rat model assessed as change in after discharge duration at 30 mg/kg, po (reference value: -5.5%). It is filed as functional.
The subject of experiment [3] is Rattus norvegicus. As to the kind of experiment: Anticonvulsant activity in amygdala kindling rat model assessed as change in after discharge duration at 100 mg/kg, po (reference value: -5.5%). Format: functional.
In experiment [4] the test system is Mus musculus. Put plainly: Anticonvulsant activity in po dosed maximal electroshock induced seizure mouse model assessed as reduction in convulsions. Format: functional. A general note: In the maximal electroshock model the usual endpoint is tonic extension of the hind limbs.
Experiment [5] deals with Rattus norvegicus. Put plainly: Anticonvulsant activity in amygdala kindling rat model assessed as change in after discharge threshold at 30 mg/kg, po relative to control. Format: functional.
Experiment [6] concerns Rattus norvegicus. As to the kind of experiment: Anticonvulsant activity in amygdala kindling rat model assessed as change in after discharge threshold at 100 mg/kg, po relative to control. It is filed as functional.
Experiment [7] has as its system Mus musculus. Put plainly: Anticonvulsant activity in maximal electroshock induced seizure mouse model assessed as reduction in convulsions at 50 mg/kg, po. Format: functional, organism-based.
Experiment [8] deals with Mus musculus. Put plainly: Anticonvulsant activity in maximal electroshock induced seizure mouse model assessed as reduction in convulsions at 100 mg/kg, po. It is filed as functional, organism-based.
For experiment [9], the system named is Mus musculus. Put plainly: Anticonvulsant activity in subcutaneous pentylenetetrazole-induced seizure mouse model assessed as reduction in convulsions at 100 mg/kg, po. It is filed as functional, organism-based.
In experiment [10] the test system is Mus musculus. As to the kind of experiment: Anticonvulsant activity in maximal electroshock induced seizure mouse model assessed as reduction in convulsions at 25 mg/kg, po. It is filed as functional, organism-based.
In experiment [11] the test system is Mus musculus. As to the kind of experiment: Anticonvulsant activity in subcutaneous pentylenetetrazole-induced seizure mouse model assessed as reduction in convulsions at 25 mg/kg, po. Format: functional, organism-based.
Experiment [12] concerns Rattus norvegicus. As to the kind of experiment: Anticonvulsant activity in amygdala kindling rat model assessed as change in after discharge threshold at 300 mg/kg, po relative to control. Format: functional.
The test system of experiment [13] is Rattus norvegicus. Put plainly: Anticonvulsant activity in amygdala kindling rat model assessed as change in after discharge duration at 600 mg/kg, po (reference value: -5.5%). Format: functional.
For experiment [14], the system named is Rattus norvegicus. Put plainly: Anticonvulsant activity in amygdala kindling rat model assessed as change in after discharge threshold at 600 mg/kg, po relative to control. It is filed as functional.
Experiment [15] concerns Mus musculus. Put plainly: Neurotoxicity in po dosed mouse by rotarod test. Format: functional. Background: Falling from the rotarod earlier than controls is read as motor impairment.
For experiment [16], the system named is Rattus norvegicus. Put plainly: Anticonvulsant activity in amygdala kindling rat model assessed as change in after discharge duration at 300 mg/kg, po (reference value: -5.5%). Format: functional.
The subject of experiment [17] is Mus musculus. As to the kind of experiment: Anticonvulsant activity in po dosed 6-Hz induced seizure mouse model. Format: functional.
The subject of experiment [18] is Mus musculus. Put plainly: Anticonvulsant activity in subcutaneous pentylenetetrazole-induced seizure mouse model assessed as reduction in convulsions at 50 mg/kg, po. Format: functional, organism-based.
Experiment [19] has as its system Mus musculus. As to the kind of experiment: Therapeutic index, ratio of TD50 for neurotoxicity in po dosed mouse to ED50 for po dosed 6-Hz induced seizure mouse model.
Experiment [20] concerns Mus musculus. Put plainly: Therapeutic index, ratio of TD50 for neurotoxicity in po dosed mouse to ED50 for po dosed maximal electroshock induced seizure mouse model.
Experiment [21] deals with Mus musculus. Put plainly: Anticonvulsant activity in ip dosed maximal electroshock induced seizure mouse model assessed as suppression in hindlimb tonic extension. Format: functional.
Experiment [22] deals with Mus musculus. Put plainly: Anticonvulsant activity in ip dosed subcutaneous pentylenetetrazole-induced seizure mouse model assessed no observable episode of clonic seizure. It is filed as functional.

In general, ED50 refers to the dose at which the effect has come halfway, by size or by number of responders. As usually defined, the TD50 is the 50% point of the dose-response relation for the toxic effect studied.

Regarding `NS(=O)(=O)Cc1noc2ccccc12` [ZONISAMIDE], the ED50 in the experiment on Mus musculus [1] is greater than 500 mg/kg; in the experiment on Mus musculus [4] it was 20 mg/kg. The Activity with Rattus norvegicus [2] was 7%; with Rattus norvegicus [3], -37.6%; with Rattus norvegicus [5], 5.1%; in the experiment with Rattus norvegicus [6], 45.9%.
Take `NS(=O)(=O)c1ccccc1-c1ccccc1`: the result with Mus musculus [7] and in the experiment with Mus musculus [8] was Active.
Turning to `CN(C)S(=O)(=O)c1cccc(Cl)c1`, the outcome in the experiment with Mus musculus [7] was Active.
With `O=S(=O)(c1ccccc1-c1ccccc1)C(F)(F)F`, the outcome in the experiment on Mus musculus [9] and with Mus musculus [8] was inactive.
Turning to `CNS(=O)(=O)c1ccccc1-c1cccc(Cl)c1`, the result in the experiment with Mus musculus [10] was inactive. Besides, the outcome in the experiment with Mus musculus [8] was Active.
The corresponding values for `CNS(=O)(=O)c1ccccc1-c1ccc(Cl)cc1` are “inactive” and “Active”.
`CN(C)S(=O)(=O)c1ccccc1-c1ccoc1`: the result with Mus musculus [8] was inactive.
In the case of `CCNS(=O)(=O)c1ccccc1-c1ccccc1`, the result in the experiment on Mus musculus [7] and in the experiment on Mus musculus [8] was Active. The result with Mus musculus [10] and in the experiment on Mus musculus [11] was inactive.
As to `CN(C)S(=O)(=O)c1ccccc1-c1ccncc1`, the result with Mus musculus [8] was inactive.
Turning to `CN(C)S(=O)(=O)c1ccccc1-c1cccnc1`, the outcome in the experiment with Mus musculus [9] was inactive.
As for `CN(C)S(=O)(=O)c1ccccc1-c1cccs1`, the outcome in the experiment on Mus musculus [9] and in the experiment on Mus musculus [8] was inactive.
As for `CCCC(CCC)C(=O)[O-].[Na+]` [VALPROATE SODIUM], the Activity is -5.4% in the experiment with Rattus norvegicus [12], -22.5% with Rattus norvegicus [13], 81.3% with Rattus norvegicus [14] and 11.1% with Rattus norvegicus [16]. The molecule further showed a TD50 in the experiment with Mus musculus [15] of 396 mg/kg. Further, the results for the median effective dose (ED50) in the experiment with Mus musculus [4] and in the experiment on Mus musculus [17] were 337 mg/kg and 394 mg/kg, respectively.
`CN(C)S(=O)(=O)c1ccccc1-c1ccccc1`: the outcome with Mus musculus [7] and with Mus musculus [18] was inactive.
For the molecule `CNS(=O)(=O)c1ccccc1-c1ccccc1OC`, the result in the experiment with Mus musculus [9] and in the experiment on Mus musculus [8] was inactive.
As for `CNS(=O)(=O)c1ccccc1-c1ccc(F)cc1`, the result in the experiment with Mus musculus [7] and with Mus musculus [8] was Active. For the same molecule, in the experiment with Mus musculus [9], the outcome was inactive.
On to `CCCNS(=O)(=O)c1ccccc1-c1ccccc1`, for which, in the experiment on Mus musculus [8], the outcome was Active.
Still for that read-out and setting: the value for `CNS(=O)(=O)c1ccccc1-c1cccc(OC)c1` was “inactive”.
As for `CN(C)S(=O)(=O)c1ccccc1-c1ccccn1`, the outcome with Mus musculus [9] was inactive.
Regarding `CNS(=O)(=O)c1ccccc1-c1ccc(OC)cc1`, the result in the experiment on Mus musculus [9] and in the experiment on Mus musculus [8] was inactive.
On to `CNS(=O)(=O)c1ccccc1-c1cccc(F)c1`, for which the result in the experiment on Mus musculus [10] was inactive. Further, in the experiment on Mus musculus [8], the outcome was Active.
Turning to `CNS(=O)(=O)c1ccccc1-c1ccccc1F`, the outcome in the experiment on Mus musculus [7], in the experiment on Mus musculus [10], in the experiment on Mus musculus [18], in the experiment with Mus musculus [9] and with Mus musculus [8] was Active. The “Ratio TD50/ED50” value with Mus musculus [19] is reported as 2; in the experiment with Mus musculus [20], 6.7. Also, the TD50 with Mus musculus [15] was found to be 107 mg/kg. Moreover, the values for the Activity in the experiment with Rattus norvegicus [3] and with Rattus norvegicus [6] were -1.4% and 352.5%, respectively. Further, the results for the ED50 in the experiment on Mus musculus [4] and in the experiment with Mus musculus [17] were 16 mg/kg and 53 mg/kg, respectively.
Take `CCS(=O)(=O)c1ccccc1-c1ccccc1`: the result with Mus musculus [9] was Active. Further, in the experiment on Mus musculus [8], the result was inactive.
On to `CNS(=O)(=O)c1ccccc1-c1ccccc1`, for which the outcome in the experiment with Mus musculus [7] and in the experiment on Mus musculus [8] was Active. For the same molecule, in the experiment with Mus musculus [18], the outcome was inactive.
Consider `CN(C)S(=O)(=O)c1ccccc1-c1ccco1`, for which the outcome in the experiment on Mus musculus [8] was inactive.
On the same count and under the same terms, next, `CS(=O)(=O)c1ccccc1-c1ccccc1F`: “Active”.
`CC1(C)O[C@@H]2[C@@H](CO[C@@]3(COS(N)(=O)=O)OC(C)(C)O[C@@H]23)O1` [TOPIRAMATE]: the median effective dose (ED50) in the experiment on Mus musculus [21] was 33 mg/kg; in the experiment with Mus musculus [22], greater than 800 mg/kg.
In the case of `CNS(=O)(=O)c1ccccc1-c1ccccc1Cl`, the outcome with Mus musculus [7] and in the experiment on Mus musculus [8] was Active.
